From the NIST ThermoML archive (doi:10.1021/je030136n)
Numbers after ± are expanded uncertainties.

Assay: xn = mol fraction of the nth substance listed
Conditions: Liquid, Pulse-echo method

With `CCCCCCC` [heptane] + CCCO the speed of sound (308.07 K, 30400 kPa, x2 = 0) was 1290.3 ± 1.2 m/s, the speed of sound (308.07 K, 45590 kPa, x2 = 0) was 1368.7 ± 1.2 m/s and the speed of sound (308.08 K, 100 kPa, x2 = 0) was 1087.4 ± 1.1 m/s. The speed of sound (308.08 K, 15200 kPa, x2 = 0) was 1200.4 ± 1.1 m/s, the speed of sound (308.09 K, 121580 kPa, x2 = 0.7016) was 1655.6 ± 1.3 m/s and the speed of sound (308.09 K, 121580 kPa, x2 = 0.7986) was 1657.2 ± 1.3 m/s. For the same compound, the speed of sound (308.1 K, 121580 kPa, x2 = 0.3008) was 1657.5 ± 1.3 m/s, the speed of sound (308.1 K, 121580 kPa, x2 = 0.4992) was 1655.4 ± 1.3 m/s and the speed of sound (308.11 K, 30400 kPa, x2 = 0.6027) was 1293.7 ± 1.1 m/s. The speed of sound (308.11 K, 91190 kPa, x2 = 0) was 1562.4 ± 1.3 m/s, the speed of sound (308.11 K, 111450 kPa, x2 = 0.4992) was 1622.6 ± 1.3 m/s and the speed of sound (308.11 K, 111450 kPa, x2 = 0.7986) was 1625.7 ± 1.2 m/s. It also gave a speed of sound (308.12 K, 100 kPa, x2 = 0.3008) of 1086.3 ± 1.1 m/s, a speed of sound (308.12 K, 15200 kPa, x2 = 0.1008) of 1194.9 ± 1.1 m/s and a speed of sound (308.12 K, 60790 kPa, x2 = 0) of 1439 ± 1.2 m/s. For the same compound, the speed of sound (308.12 K, 75990 kPa, x2 = 0) was 1503.2 ± 1.3 m/s, the speed of sound (308.12 K, 91190 kPa, x2 = 0.7016) was 1555.2 ± 1.2 m/s and the speed of sound (308.13 K, 30400 kPa, x2 = 0.7986) was 1308.5 ± 1.1 m/s. For the same compound, the speed of sound (308.14 K, 45590 kPa, x2 = 0.6027) was 1368.1 ± 1.1 m/s, the speed of sound (308.14 K, 60790 kPa, x2 = 0.7986) was 1444.4 ± 1.1 m/s and the speed of sound (308.14 K, 91190 kPa, x2 = 0.3008) was 1552.6 ± 1.2 m/s. For the same compound, the speed of sound (308.14 K, 101320 kPa, x2 = 0.7986) was 1592.7 ± 1.2 m/s, the speed of sound (308.14 K, 111450 kPa, x2 = 0.3008) was 1624.1 ± 1.3 m/s and the speed of sound (308.15 K, 100 kPa, x2 = 0.7986) was 1128.4 ± 1 m/s. The speed of sound (308.15 K, 45590 kPa, x2 = 0.7986) was 1379.8 ± 1.1 m/s, the speed of sound (308.15 K, 60790 kPa, x2 = 0.3008) was 1431.2 ± 1.2 m/s and the speed of sound (308.15 K, 101320 kPa, x2 = 0.4992) was 1588.3 ± 1.2 m/s. It also gave a speed of sound (308.16 K, 45590 kPa, x2 = 0.3008) of 1362 ± 1.1 m/s, a speed of sound (308.16 K, 101320 kPa, x2 = 0.3008) of 1589.1 ± 1.3 m/s and a speed of sound (308.16 K, 101320 kPa, x2 = 0.7016) of 1590 ± 1.2 m/s. The speed of sound (308.16 K, 111450 kPa, x2 = 0.6027) was 1622.3 ± 1.2 m/s, the speed of sound (308.17 K, 75990 kPa, x2 = 0.3008) was 1494.3 ± 1.2 m/s and the speed of sound (308.17 K, 75990 kPa, x2 = 0.6027) was 1496.3 ± 1.2 m/s. The speed of sound (308.17 K, 111450 kPa, x2 = 0.7016) was 1623.4 ± 1.2 m/s, the speed of sound (308.17 K, 121580 kPa, x2 = 0) was 1668.6 ± 1.4 m/s and the speed of sound (308.18 K, 60790 kPa, x2 = 0.6027) was 1435 ± 1.1 m/s. It also gave a speed of sound (308.18 K, 75990 kPa, x2 = 0.4992) of 1495.2 ± 1.2 m/s, a speed of sound (308.18 K, 91190 kPa, x2 = 0.4992) of 1552.3 ± 1.2 m/s and a speed of sound (308.18 K, 91190 kPa, x2 = 0.6027) of 1552.8 ± 1.2 m/s. For the same compound, the speed of sound (308.18 K, 121580 kPa, x2 = 0.6027) was 1654.7 ± 1.3 m/s, the speed of sound (308.19 K, 30400 kPa, x2 = 0.3008) was 1284.8 ± 1.1 m/s and the speed of sound (308.19 K, 60790 kPa, x2 = 0.4992) was 1433 ± 1.2 m/s. The speed of sound (308.19 K, 75990 kPa, x2 = 0.7986) was 1503.4 ± 1.2 m/s, the speed of sound (308.2 K, 100 kPa, x2 = 0.4992) was 1095.2 ± 1 m/s and the speed of sound (308.2 K, 30400 kPa, x2 = 0.4992) was 1289.6 ± 1.1 m/s. It also gave a speed of sound (308.2 K, 45590 kPa, x2 = 0.4992) of 1365.2 ± 1.1 m/s, a speed of sound (308.2 K, 45590 kPa, x2 = 0.7016) of 1373.1 ± 1.1 m/s and a speed of sound (308.2 K, 75990 kPa, x2 = 0.1008) of 1497.7 ± 1.2 m/s. For the same compound, the speed of sound (308.2 K, 91190 kPa, x2 = 0.7986) was 1558.1 ± 1.2 m/s, the speed of sound (308.2 K, 101320 kPa, x2 = 0.1008) was 1593.7 ± 1.3 m/s and the speed of sound (308.21 K, 100 kPa, x2 = 0.6027) was 1103.5 ± 1 m/s. The speed of sound (308.21 K, 100 kPa, x2 = 0.7016) was 1114.7 ± 1 m/s, the speed of sound (308.21 K, 60790 kPa, x2 = 0.1008) was 1433.6 ± 1.2 m/s and the speed of sound (308.21 K, 60790 kPa, x2 = 0.7016) was 1438.8 ± 1.1 m/s. The speed of sound (308.21 K, 111450 kPa, x2 = 0) was 1634.6 ± 1.3 m/s, the speed of sound (308.22 K, 100 kPa, x2 = 0.1008) was 1082.2 ± 1.1 m/s and the speed of sound (308.22 K, 30400 kPa, x2 = 0.1008) was 1284.6 ± 1.1 m/s. For the same compound, the speed of sound (308.22 K, 30400 kPa, x2 = 0.7016) was 1300 ± 1.1 m/s, the speed of sound (308.22 K, 45590 kPa, x2 = 0.1008) was 1363.2 ± 1.2 m/s and the speed of sound (308.22 K, 91190 kPa, x2 = 0.1008) was 1556.7 ± 1.3 m/s. It also gave a speed of sound (308.22 K, 111450 kPa, x2 = 0.1008) of 1628.9 ± 1.3 m/s, a speed of sound (308.23 K, 75990 kPa, x2 = 0.7016) of 1499.1 ± 1.2 m/s and a speed of sound (308.23 K, 121580 kPa, x2 = 0.1008) of 1662.3 ± 1.3 m/s. It also gave a speed of sound (308.24 K, 101320 kPa, x2 = 0) of 1599.1 ± 1.3 m/s, a speed of sound (308.24 K, 101320 kPa, x2 = 0.6027) of 1588.1 ± 1.2 m/s and a speed of sound (313.08 K, 100 kPa, x2 = 0.7986) of 1109.7 ± 1 m/s. The speed of sound (313.08 K, 75990 kPa, x2 = 0.7986) was 1490.8 ± 1.2 m/s, the speed of sound (313.09 K, 30400 kPa, x2 = 0.4992) was 1273.3 ± 1.1 m/s and the speed of sound (313.09 K, 60790 kPa, x2 = 0.4992) was 1418.7 ± 1.2 m/s. The speed of sound (313.1 K, 100 kPa, x2 = 0) was 1066.1 ± 1.1 m/s, the speed of sound (313.1 K, 100 kPa, x2 = 0.6027) was 1083.9 ± 1 m/s and the speed of sound (313.1 K, 15200 kPa, x2 = 0) was 1182 ± 1.1 m/s. It also gave a speed of sound (313.1 K, 60790 kPa, x2 = 0.7986) of 1431 ± 1.1 m/s, a speed of sound (313.1 K, 75990 kPa, x2 = 0) of 1489.2 ± 1.2 m/s and a speed of sound (313.1 K, 121580 kPa, x2 = 0.7986) of 1645.9 ± 1.3 m/s. For the same compound, the speed of sound (313.11 K, 45590 kPa, x2 = 0.7986) was 1365.7 ± 1.1 m/s, the speed of sound (313.11 K, 91190 kPa, x2 = 0.7016) was 1542.7 ± 1.2 m/s and the speed of sound (313.11 K, 91190 kPa, x2 = 0.7986) was 1546.1 ± 1.2 m/s. It also gave a speed of sound (313.11 K, 101320 kPa, x2 = 0.7986) of 1580.9 ± 1.2 m/s, a speed of sound (313.12 K, 30400 kPa, x2 = 0) of 1273.3 ± 1.1 m/s and a speed of sound (313.12 K, 30400 kPa, x2 = 0.6027) of 1277.6 ± 1.1 m/s. The speed of sound (313.12 K, 45590 kPa, x2 = 0) was 1353 ± 1.2 m/s, the speed of sound (313.12 K, 45590 kPa, x2 = 0.3008) was 1346.5 ± 1.1 m/s and the speed of sound (313.12 K, 60790 kPa, x2 = 0) was 1424.3 ± 1.2 m/s. The speed of sound (313.12 K, 60790 kPa, x2 = 0.1008) was 1419 ± 1.2 m/s, the speed of sound (313.12 K, 75990 kPa, x2 = 0.6027) was 1482.9 ± 1.2 m/s and the speed of sound (313.12 K, 91190 kPa, x2 = 0.6027) was 1540 ± 1.2 m/s. The speed of sound (313.12 K, 101320 kPa, x2 = 0.6027) was 1575.9 ± 1.2 m/s, the speed of sound (313.12 K, 111450 kPa, x2 = 0.7986) was 1614.1 ± 1.2 m/s and the speed of sound (313.13 K, 45590 kPa, x2 = 0.1008) was 1347.6 ± 1.2 m/s. It also gave a speed of sound (313.13 K, 45590 kPa, x2 = 0.6027) of 1353 ± 1.1 m/s, a speed of sound (313.13 K, 91190 kPa, x2 = 0) of 1549 ± 1.3 m/s and a speed of sound (313.13 K, 101320 kPa, x2 = 0.7016) of 1578 ± 1.2 m/s. It also gave a speed of sound (313.13 K, 121580 kPa, x2 = 0) of 1656.4 ± 1.4 m/s, a speed of sound (313.14 K, 15200 kPa, x2 = 0.1008) of 1176.1 ± 1.1 m/s and a speed of sound (313.14 K, 60790 kPa, x2 = 0.6027) of 1420.9 ± 1.1 m/s. The speed of sound (313.14 K, 75990 kPa, x2 = 0.1008) was 1483.7 ± 1.2 m/s.
